Data as given in patent US12258332B2, “ASGPR cell surface receptor binding compounds and conjugates” (Lycia Therapeutics, Inc., priority 2021, dated 2025).
“Also recorded” adds a separate entry of the source. Where two headings read alike, the source gives them in different places.

How the values were obtained:
ASGPR = biological target: T1, ASGPR (Homo sapiens, UniProt P07306); assay: ASGPR binding by fluorescence polarization assay (GalNac-Cy5 probe); details: for IC50: 80 nM ASGPR, 1 nM probe, 2 hr incubation
T1 construct: purchased Acro Biosystems
T1 sequence (P07306 1-291): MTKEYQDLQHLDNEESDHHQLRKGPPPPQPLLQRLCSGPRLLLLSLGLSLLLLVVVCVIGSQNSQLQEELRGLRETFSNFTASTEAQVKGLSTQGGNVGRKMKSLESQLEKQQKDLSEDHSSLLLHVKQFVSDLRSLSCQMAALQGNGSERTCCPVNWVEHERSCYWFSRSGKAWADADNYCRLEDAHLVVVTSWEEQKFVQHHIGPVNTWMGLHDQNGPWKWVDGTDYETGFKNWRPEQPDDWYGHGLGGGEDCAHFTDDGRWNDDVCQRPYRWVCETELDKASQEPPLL
Protocol: Assay Procedure: ASGPR binding was measured in black 96-well plates using a fluorescence polarization assay. A fluorescent probe consisting of a tri-GalNAc linked to Cy5 (GalNac-Cy5, depicted below) was custom synthesized. Example compounds were resuspended in DMSO and 3-fold serial dilutions were made at 100× final concentrations. Binding reactions were conducted in 100 μl final volume in 20 mM Hepes (pH 7.5) 50 mM NaCl 5 mM CaCl2 0.015% Triton X-100 1% DMSO with 80 nM ASGPR (Acro Biosystems) and 1 nM probe. Fluorescence polarization was measured using λex=620 nm, λem=688 nm on an Envision plate reader (Perkin Elmer) after 2 hr incubation time. Dose responses were conducted in duplicate and normalized to the response with DMSO (high) and 1 μM reference compound 18G (low) on each plate. IC50 values were determined by fitting to 4-parameter curves in GraphPad Prism.
Example monovalent compounds (depicted below) were assessed at 100 μM as compared to a reference compound 18G (e.g., intermediate compound 18G in Example 14) as a positive control, following the assay procedure outlined in Example 68.

HepG2 cells = assay: Uptake of Alexa488-labelled target IgE bound to omalizumab (OMA) conjugates in HepG2 cells, flow cytometry; format: cell-based, human; details: omalizumab (anti-IgE) conjugate bound to IgE-Alexa488, equal molar ratios; 1 hour
Protocol: (§1) The omalizumab conjugates of Example 60 were bound to IgE-Alexa488 (prepared according to Example 62), as follows: equal molar ratios of omalizumab (anti-IgE) conjugate and IgE-Alexa488 were added in tissue culture media for 30 minutes at room temperature. The resulting anti-IgE conjugate:IgE antibody-Alexa488 compositions were added to HepG2 cells (100 k cells/50 ul per well, n=2), and Alexa488 fluorescence levels in the cells were measured at 1 hour by flow cytometry. As the fluorescently labelled target (IgE antibody) accumulates in cells, the fluorescence presents a way to measure total intracellular uptake by cells over time.
as §1, with “OMA Ab” for “The omalizumab”, “example compounds I-160-I-163 and I-141” for “Example 60”, “by adapting procedure in” for “according to”, “61),” for “62),”, “OMA(anti-IgE)” for “omalizumab (anti-IgE)”

[1] = trivalent compounds, dose response curves
[2] = trivalent compounds, read-out: IC50
[3] = monovalent compounds, read-out: IC50 (MM)

IC50 (ASGPR; [2]) [nM] | IC50 (ASGPR; [3]) [nM] | Structure (SMILES) | other results
≤ 50 |  | O=C(O)CCCCCCCCCCC(=O)NC(COCCC(=O)NCCCCNC(=O)c1cccc(OCc2cn([C@H]3CO[C@H](CO)[C@H](O)[C@@H]3O)nn2)c1)(COCCC(=O)NCCCCNC(=O)c1cccc(OCc2cn([C@H]3CO[C@H](CO)[C@H](O)[C@@H]3O)nn2)c1)COCCC(=O)NCCCCNC(=O)c1cccc(OCc2cn([C@H]3CO[C@H](CO)[C@H](O)[C@@H]3O)nn2)c1 [1901 (I-171), 13,13-bis((3-((4-(3-((1-((3S,4R,5R,6R)-4,5-dihydroxy-6-(hydroxymethyl)tetrahydro-2H-pyran-3-yl)-1H-1,2,3-triazol-4-yl)methoxy)benzamido)butyl)amino)-3-oxopropoxy)methyl)-1-(3-((1-((3S,4R,5R,6R)-4,5-dihydroxy-6-(hydroxymethyl)tetrahydro-2H-pyran-3-yl)-1H-1,2,3-triazol-4-yl)methoxy)phenyl)-1,8,15-trioxo-11-oxa-2,7,14-triazahexacosan-26-oic acid] | ASGPR binding affinity compared to reference compound 18G / other trivalent compounds (ASGPR; [1]): comparable affinity as reference compound 18G
≤ 50 |  | O=C(O)CCCCCCCCCCC(=O)NC(COCCC(=O)NCCCCNC(=O)c1ccc(OCc2cn([C@H]3CO[C@H](CO)[C@H](O)[C@@H]3O)nn2)cc1)(COCCC(=O)NCCCCNC(=O)c1ccc(OCc2cn([C@H]3CO[C@H](CO)[C@H](O)[C@@H]3O)nn2)cc1)COCCC(=O)NCCCCNC(=O)c1ccc(OCc2cn([C@H]3CO[C@H](CO)[C@H](O)[C@@H]3O)nn2)cc1 [1902 (I-172), 13,13-bis((3-((4-(4-((1-((3S,4R,5R,6R)-4,5-dihydroxy-6-(hydroxymethyl)tetrahydro-2H-pyran-3-yl)-1H-1,2,3-triazol-4-yl)methoxy)benzamido)butyl)amino)-3-oxopropoxy)methyl)-1-(4-((1-((3S,4R,5R,6R)-4,5-dihydroxy-6-(hydroxymethyl)tetrahydro-2H-pyran-3-yl)-1H-1,2,3-triazol-4-yl)methoxy)phenyl)-1,8,15-trioxo-11-oxa-2,7,14-triazahexacosan-26-oic acid] | ASGPR binding affinity compared to reference compound 18G / other trivalent compounds (ASGPR; [1]): comparable affinity as reference compound 18G
≤ 50 | ≤ 1000 | CC(=O)N[C@H]1[C@H](OCCCCC(=O)NCCCNC(=O)CCOCC(N)(COCCC(=O)NCCCNC(=O)CCCCO[C@@H]2O[C@H](CO)[C@H](O)[C@H](O)[C@H]2NC(C)=O)COCCC(=O)NCCCNC(=O)CCCCO[C@@H]2O[C@H](CO)[C@H](O)[C@H](O)[C@H]2NC(C)=O)O[C@H](CO)[C@H](O)[C@@H]1O [Compound 18G] | 
 | 1000 to 50000 | C#CC[C@H]1O[C@H](CO)[C@H](O)[C@H](O)[C@H]1NC(C)=O [Compound 591] | ASGPR binding affinity among the tested monomers (ASGPR; monovalent compounds, dose response curves): highest affinity of the tested monomers
 | > 50000 | CC(C)(C)C(=O)N[C@H]1CO[C@H](CO)[C@H](O)[C@@H]1O [Compound 592] | 
 |  | C#CCCCO[C@H]1CO[C@H](CO)[C@H](O)[C@@H]1O [Compound 593] | binding as a percentage of the activity of reference compound 18G (ASGPR; monovalent compounds at 100 μM): < 50%
> 100 |  | O=C(O)CCCCCCCCCCC(=O)NC(CCC(=O)NCCOCCOCCn1cc(COc2nc(N[C@H]3CO[C@H](CO)[C@H](O)[C@@H]3O)cc(C(F)(F)F)n2)nn1)(CCC(=O)NCCOCCOCCn1cc(COc2nc(N[C@H]3CO[C@H](CO)[C@H](O)[C@@H]3O)cc(C(F)(F)F)n2)nn1)CCC(=O)NCCOCCOCCn1cc(COc2nc(N[C@H]3CO[C@H](CO)[C@H](O)[C@@H]3O)cc(C(F)(F)F)n2)nn1 [Compound 1920] | 
> 100 |  | CC(=O)N[C@H]1[C@H](OCCCCC(=O)NCCCNC(=O)CCOCC(COCCC(=O)NCCCNC(=O)CCCCO[C@@H]2O[C@H](CO)[C@H](O)[C@H](O)[C@H]2NC(C)=O)(COCCC(=O)NCCCNC(=O)CCCCO[C@@H]2O[C@H](CO)[C@H](O)[C@H](O)[C@H]2NC(C)=O)NC(=O)CCCCCCCCCCC(=O)O)O[C@H](CO)[C@H](O)[C@@H]1O [Compound I-124acid, reference compound] | ASGPR binding affinity compared to reference compound 18G / other trivalent compounds (ASGPR; [1]): reduced ASGPR binding affinity
 |  | CC(=O)N[C@H]1[C@H](OCCCCC(=O)NCCCNC(=O)CCOCC(COCCC(=O)NCCCNC(=O)CCCCO[C@@H]2O[C@H](CO)[C@H](O)[C@H](O)[C@H]2NC(C)=O)(COCCC(=O)NCCCNC(=O)CCCCO[C@@H]2O[C@H](CO)[C@H](O)[C@H](O)[C@H]2NC(C)=O)NC(=O)CCc2cn(CCOCCOCCOCCOCCOCCOCCOCCOCCOCCOCCOCCOCCOCCOCCOCCOCCOCCOCCOCCOCCOCCOCCOCCOCCC(=O)Oc3c(F)c(F)c(F)c(F)c3F)nn2)O[C@H](CO)[C@H](O)[C@@H]1O [Compound I-137] | relative uptake activity of Alexa488 labeled-target IgE in HepG2 cells (HepG2 cells): comparable activity to the reference conjugate; also recorded: comparable activity to a reference conjugate
 |  | CC(=O)N[C@@H]1[C@@H](O)[C@@H](O)[C@@H](CO)O[C@H]1Cc1cn(CCOCCOCCOCCNC(=O)CCC(CCC(=O)NCCOCCOCCOCCn2cc(C[C@@H]3O[C@H](CO)[C@H](O)[C@H](O)[C@H]3NC(C)=O)nn2)(CCC(=O)NCCOCCOCCOCCn2cc(C[C@@H]3O[C@H](CO)[C@H](O)[C@H](O)[C@H]3NC(C)=O)nn2)NC(=O)CCCCCCCCCCC(=O)Oc2c(F)c(F)c(F)c(F)c2F)nn1 [Compound I-140, perfluorophenyl 1-(4-(((2S,3R,4R,5R,6R)-3-acetamido-4,5-dihydroxy-6-(hydroxymethyl)tetrahydro-2H-pyran-2-yl)methyl)-1H-1,2,3-triazol-1-yl)-16,16-bis(1-(4-(((2S,3R,4R,5R,6R)-3-acetamido-4,5-dihydroxy-6-(hydroxymethyl)tetrahydro-2H-pyran-2-yl)methyl)-1H-1,2,3-triazol-1-yl)-13-oxo-3,6,9-trioxa-12-azapentadecan-15-yl)-13,18-dioxo-3,6,9-trioxa-12,17-diazanonacosan-29-oate] | relative uptake activity of Alexa488 labeled-target IgE in HepG2 cells (HepG2 cells): comparable activity to the conjugate having the 0-glycoside
 | 1000 to 50000 | O=C(O)c1cccc(OCc2cn([C@H]3CO[C@H](CO)[C@H](O)[C@@H]3O)nn2)c1 [XB20, 3-((1-((3S,4R,5R,6R)-4,5-dihydroxy-6-(hydroxymethyl)tetrahydro-2H-pyran-3-yl)-1H-1,2,3-triazol-4-yl)methoxy)benzoic acid] | 
 | 1000 to 50000 | OC[C@H]1OC[C@H](Nc2cc(C(F)(F)F)ccn2)[C@@H](O)[C@H]1O [XB23] | 
50 to 100 |  | NC(CCC(=O)NCCOCCOCCOCc1cn([C@H]2CO[C@H](CO)[C@H](O)[C@@H]2O)nn1)(CCC(=O)NCCOCCOCCOCc1cn([C@H]2CO[C@H](CO)[C@H](O)[C@@H]2O)nn1)CCC(=O)NCCOCCOCCOCc1cn([C@H]2CO[C@H](CO)[C@H](O)[C@@H]2O)nn1 [XB32, 4-amino-4-(1-(1-((3S,4R,5R,6R)-4,5-dihydroxy-6-(hydroxymethyl)tetrahydro-2H-pyran-3-yl)-1H-1,2,3-triazol-4-yl)-12-oxo-2,5,8-trioxa-11-azatetradecan-14-yl)-N1,N7-bis(2-(2-(2-((1-((3S,4R,5R,6R)-4,5-dihydroxy-6-(hydroxymethyl)tetrahydro-2H-pyran-3-yl)-1H-1,2,3-triazol-4-yl)methoxy)ethoxy)ethoxy)ethyl)heptanediamide] | ASGPR binding affinity compared to reference compound 18G / other trivalent compounds (ASGPR; [1]): comparable affinity as reference compound 18G
≤ 50 |  | NC(CCC(=O)NCCOCCOCCOCc1cn([C@H]2[C@H]3OC[C@](CO)(O3)[C@H](O)[C@@H]2O)nn1)(CCC(=O)NCCOCCOCCOCc1cn([C@H]2[C@H]3OC[C@](CO)(O3)[C@H](O)[C@@H]2O)nn1)CCC(=O)NCCOCCOCCOCc1cn([C@H]2[C@H]3OC[C@](CO)(O3)[C@H](O)[C@@H]2O)nn1 [XB40, 4-amino-4-(1-(1-((1S,2R,3R,4R,5S)-2,3-dihydroxy-1-(hydroxymethyl)-6,8-dioxabicyclo[3.2.1]octan-4-yl)-1H-1,2,3-triazol-4-yl)-12-oxo-2,5,8-trioxa-11-azatetradecan-14-yl)-N1,N7-bis(2-(2-(2-((1-((1S,2R,3R,4R,5S)-2,3-dihydroxy-1-(hydroxymethyl)-6,8-dioxabicyclo[3.2.1]octan-4-yl)-1H-1,2,3-triazol-4-yl)methoxy)ethoxy)ethoxy)ethyl)heptanediamide] | 
